“Also recorded” adds a separate entry of the source.
What was measured:
GIT2-GFP = GIT2-GFP (Homo sapiens, UniProt Q14161); test: MST binding to GIT2-GFP
RKO cells [1] = test: MTT assay in RKO cells; type: cell-based; settings: Homo sapiens
Description: The inventors identified nine inhibitors and perfomed an EdU assay after treating non-malignant (HEK293, AML12) and malignant (HepG2, MzChA-1, HT-29, RKO) cells with varying concentrations of GIT1 inhibitor for 24 hours (results are mean±SE from 3 independent experiments done in duplicates, *p<0.05 vs. DMSO). An MTT assay was also performed after treating primary human and mouse hepatocytes and liver and colon cancer cells with varying concentrations of GIT1 inhibitor for 24 hours (results are mean±SE from 3 independent experiments done in duplicates, *p<0.05 vs. DMSO). […] Percoll may be used to remove dead human hepatocytes.

HepG2 cells [2] = test: Cell cycle flow cytometry HepG2; type: cell-based; settings: 1-5 μM, 24 hours
AML12 cells [3] = test: Cell cycle flow cytometry AML12; type: cell-based; settings: 1-5 μM, 24 hours
HEK293 cells [4] = test: Cell cycle flow cytometry HEK293; type: cell-based; settings: 1-5 μM, 24 hours
RKO cells [5] = test: Annexin V-FITC/propidium iodide assay RKO; type: cell-based, human; settings: 5 μM, 24-48 hours
Description: (§1) FIG. 8 depicts, in accordance with various embodiments of the invention, results of an annexin V-FITC/propidium iodide binding assay performed in human and mouse hepatocytes, AML12, HEK293, HepG2, and RKO cells after treatment with 5 μM of a GIT1 inhibitor or DMSO for 24-48 hours (results are shown as mean±SE from at least 3 experiments. *p<0.05 vs. DMSO).
(§2) An annexin V-FITC/propidium iodide (PI) binding assay was performed with flow cytometry. […] Both G2/M arrest and cell death are mechanisms by which compound C3 inhibits cancer cells' growth.

HepG2 cells [6] = test: Annexin V-FITC/propidium iodide assay HepG2; type: cell-based; settings: 5 μM, 24-48 hours
Description: as §1, §2

human hepatocytes = test: Annexin V-FITC/propidium iodide assay human hepatocytes; type: cell-based; settings: 5 μM, 24-48 hours
Description: as §1, §2

HEK293 cells [7] = test: Annexin V-FITC/propidium iodide assay HEK293; type: cell-based; settings: 5 μM, 24-48 hours
Description: as §1, §2

RKO cells [8] = test: Clonogenic assay RKO; type: cell-based, human; settings: 1 μM, 24 hours then drug free medium 10-20 days; dose dependent
Description: (§3) RKO, HepG2, and AML12 cells were treated with 1-10 μM compound C3 for 24 hours and maintained in drug free medium for 10-20 days.

AML12 cells [9] = test: Clonogenic assay AML12; type: cell-based; settings: 1-10 μM, 24 hours then drug free medium 10-20 days
Description: as §3

MEK and ERK activity [10] = test: Western blot ERK and MEK activity in HepG2 cells; type: cell-based; settings: 2-10 μM, 24 hours
Description: Treatment of human hepatocytes with 10 μM compound C3 had no effect on MEK or ERK activity.

MEK and ERK activity [11] = test: Western blot ERK and MEK activity in MC38 cells; type: cell-based; settings: 10 μM, 24 hours
MEK and ERK activity [12] = test: Western blot ERK and MEK activity in RKO cells; type: cell-based, human; settings: 2-10 μM, 24 hours
CyclinB1 = test: Cyclin B1 expression by RT-PCR, Western blotting and CHX in HepG2; type: cell-based
Description: HepG2 cells were treated with DMSO or compound C3 (2-5 μM) for 24 hours. […] Numbers shown below are mean±SE densitometric values.

MC38 cells = test: Syngeneic subcutaneous MC38 mouse model; type: in vivo, C57/BL6 mouse
Description: MC38 cells were injected subcutaneously in both flanks. Compound C3 and DMSO were injected intratumorally every other day at 100 μM (5×IC50) starting at day 7 when the tumors averaged 0.5 cm in diameter. Tumor size was measured by caliper, with the tumor volume calculated according to the formula: (π/6)*(length*width*height). Each mouse received compound C3 injection in tumors on one flank and DMSO in the contralateral tumor. Animals were sacrificed on day 13.

RKO cells [13] = test: RKO growth in liver of nude mice; type: in vivo; settings: 25 mg/kg ip daily for 5 days
Description: FIG. 39A-FIG. 39D depicts, in accordance with various embodiments of the invention, compound C3 inhibits human CRC growth in liver. RKO cells (2×10^6) stably expressing luciferase were injected into the liver of nude mice. Twenty days later (day 0) DMSO and compound C3 were injected intraperitoneally (ip) in FIG. 39A pilot experiment using 10 mg/kd/d×5 days, rest 2 days and repeat. FIG. 39B 25 mg/kg daily for 5 days and imaged on day 7 using IVIS Spectrum photon-counting device optical imaging system (Xenogen, Alameda, CA.). FIG. 39C graph summarizes luciferase intensity from FIG. 39B. FIG. 39D gross pictures of the livers at day 7 from FIG. 39B, point to tumors *p<0.05.
Compound C3 powder was dissolved in pure DMSO at 50 mg/ml, as a stock store in-80 °C. Stock solution was dissolved in 200 μl 0.9% saline to reach 25 mg/kg. For control group, DMSO was dissolved in 200 μl saline to achieve a concentration of DMSO in saline of 7.5%. RKO cells (2×106) stably expressing luciferase were injected directly into the liver of nude mice. Twenty days later DMSO and Compound C3 were injected intraperitoneally (ip) at a dose of 25 mg/kg daily for 5 days and imaged on day 7.

Toxicity in C57/BL6 mice = settings: mouse, in vivo
[14] = 100 μM intratumorally every other day
[15] = 100 μM intratumorally, western blot

GIT2-GFP, sequence (Q14161 whole entry): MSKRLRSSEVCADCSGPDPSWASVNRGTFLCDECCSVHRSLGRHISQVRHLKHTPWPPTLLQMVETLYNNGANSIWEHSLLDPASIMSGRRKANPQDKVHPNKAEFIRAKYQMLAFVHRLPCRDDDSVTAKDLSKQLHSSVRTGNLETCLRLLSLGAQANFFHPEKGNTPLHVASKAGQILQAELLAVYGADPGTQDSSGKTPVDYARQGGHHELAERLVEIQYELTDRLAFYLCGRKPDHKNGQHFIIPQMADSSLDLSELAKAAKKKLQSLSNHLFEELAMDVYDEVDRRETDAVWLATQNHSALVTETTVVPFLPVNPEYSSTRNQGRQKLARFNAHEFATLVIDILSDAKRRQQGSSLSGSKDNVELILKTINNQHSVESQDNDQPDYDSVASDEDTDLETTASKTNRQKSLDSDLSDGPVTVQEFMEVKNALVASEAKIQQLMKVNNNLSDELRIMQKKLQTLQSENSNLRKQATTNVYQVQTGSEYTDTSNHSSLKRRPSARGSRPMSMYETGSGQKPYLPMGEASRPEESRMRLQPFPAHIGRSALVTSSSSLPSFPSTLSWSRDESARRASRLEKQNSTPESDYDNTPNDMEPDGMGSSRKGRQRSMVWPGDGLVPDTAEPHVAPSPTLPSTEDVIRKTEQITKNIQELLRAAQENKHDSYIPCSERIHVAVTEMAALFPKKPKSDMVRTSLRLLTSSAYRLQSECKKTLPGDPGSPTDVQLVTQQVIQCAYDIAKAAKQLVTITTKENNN

For `CC1(C)Cc2nc3sc4c(=O)n(CC(=O)NCc5ccco5)cnc4c3cc2CO1` [Compound C3, 2-(8,8-Dimethyl-4-oxo-7,10-dihydro-8H-pyrano[3″,4″: 5′,6′]pyrido[3′,2′: 4,5]thieno[3,2-d]pyrimidin-3 (4H)-yl)-N-(2-furylmethyl) acetamide], the “binding to GIT2-GFP” value (GIT2-GFP) was “not GIT2-GFP”, the IC50 (RKO cells [1]) was roughly 20 µM and the “G2/M phase, HepG2” value (HepG2 cells [2]) was “G2/M phase was significantly increased”. The “percentage of cells in G1 phase, HepG2” value (HepG2 cells [2]) was “lowered the percentage of cells in G1 phase”, the “G2/M arrest, AML12” value (AML12 cells [3]) was “did not occur” and the “G2/M arrest, HEK293” value (HEK293 cells [4]) was “did not occur”. For the same compound, the “apoptosis, RKO” value (RKO cells [5]) was “significant apoptosis”, the “apoptosis, HepG2” value (HepG2 cells [6]) was “significant apoptosis” and the “necrosis, HepG2” value (HepG2 cells [6]) was “significant necrosis”. For the same compound, the “cell death, human hepatocytes” value (human hepatocytes) was “does not induce cell death”, the “cell death, HEK293” value (HEK293 cells [7]) was “does not induce cell death” and the “clonogenic potential, RKO” value (RKO cells [8]) was “inhibited the clonogenic potential”. The “clonogenic potential, AML12” value (AML12 cells [9]) was “no effect on clonogenic potential”, the “ERK and MEK activities, HepG2” value (MEK and ERK activity [10]) was “lower” and the “ERK and MEK activities, MC38” value (MEK and ERK activity [11]) was “lower”. For the same compound, the “ERK and MEK activities, RKO” value (MEK and ERK activity [12]) was “lower”, the CyclinB1 content (CyclinB1) was “increases CyclinB1 content; also recorded: led to cyclin B1 accumulation” and the “CyclinB1 mRNA level” value (CyclinB1; HepG2, 2-5 μM, 24 hours) was “increases CyclinB1 mRNA level”. For the same compound, the CyclinB1 protein degradation (CyclinB1; HepG2, cycloheximide, 5 μM) was “inhibits its protein degradation”, the CyclinB1 phosphorylation (CyclinB1; associated with nuclear accumulation) was “promotes CyclinB1 phosphorylation” and the “H&E of tumors” value (MC38 cells; [14]) was “spindle MC38 tumor cells turned into small round cells”. The “H&E staining of major organs” value (MC38 cells; [14]) was “no tissue damage or toxicity”, the “PCNA staining in tumors” value (MC38 cells; [14]) was “dramatic effect in reducing its staining” and the “TUNEL assay of tumors” value (MC38 cells; [14]) was “more apoptopic cells”. The body weights (MC38 cells; [14]) was “not significantly different”, the “tumor growth, subcutaneous” value (MC38 cells; 100 μM intratumorally every other day from day 7, day 13) was “inhibits colon cancer growth” and the “MEK1/2 activity in tumors” value (MC38 cells; [15]) was “decreased MEK1/2 activity”. The “cyclin D1 level in tumors” value (MC38 cells; [15]) was “less cyclin D1 level”, the overt toxicity (RKO cells [13]) was “without causing overt toxicity” and the “tumor growth in liver” value (RKO cells [13]; imaged day 7) was “effective in reducing tumor growth”. For the same compound, the “toxicity in C57/BL6 mice” value (Toxicity in C57/BL6 mice) was “no toxicity”.
